Holding throughout (assay type): biochemical
For one assay, the target named is T1, Human Mer (Homo sapiens, UniProt Q12866).
T1 construct: Human Mer (residues R557-E882 with H628Q and R794A, 0.7 nM); purchased Eurofins Pharma Discovery Services UK Limited (KinaseProfiler service)
T1 sequence (Q12866 557-882 limits assumed): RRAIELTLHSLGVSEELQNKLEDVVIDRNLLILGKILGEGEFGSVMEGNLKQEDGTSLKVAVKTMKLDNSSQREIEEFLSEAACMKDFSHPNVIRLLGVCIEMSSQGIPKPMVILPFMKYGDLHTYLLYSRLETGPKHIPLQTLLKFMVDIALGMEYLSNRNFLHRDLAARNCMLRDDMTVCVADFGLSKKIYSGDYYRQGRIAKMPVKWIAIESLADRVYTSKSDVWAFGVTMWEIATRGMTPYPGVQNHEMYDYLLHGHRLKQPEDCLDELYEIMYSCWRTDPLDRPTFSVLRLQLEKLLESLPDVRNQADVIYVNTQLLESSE
Briefly: Human Mer kinase assay (33P radiometric / HTRF KinEase). The following applies: protocols of Examples C-1 and/or C-2. The procedure:
(§1) Kinase activity and compound inhibition were investigated using the ^33P-Phosphoryl transfer radiometric kinase assay, performed using the KinaseProfiler™ service of Eurofins Pharma Discovery Services UK Limited. Dose-response experiments were performed using nine compound concentrations in a 96-well microtiter plate. For each assay, all compounds were prepared to a 50× final assay concentration (50 μM) in 100% DMSO, then diluted in a half-log series, with the final top concentration at 1 μM. This working stock of the compound was added to the assay well as the first component in the reaction, followed by the remaining components as detailed in the following assay protocols below. The positive control wells (100% kinase activity) contain all components of the reaction including 2% DMSO (control for solvent effects), except the compound of interest. Blank wells contain all components of the reaction, with the reference inhibitor, staurosporine. This reference compound was used to abolish kinase activity and generated the 0% kinase activity base-line. IC50 values were calculated by nonlinear regression analysis using the sigmoidal dose-response (variable slope) curve fit on XLFit version 5.3 (ID Business Solutions).
(§2) Kinase activity and compound inhibition were also investigated using the HTRF® KinEase assay (Cisbio Cat #62TKOPEB) per manufacturer's instructions. In short, compounds were delivered in 300 nL volumes at 10 different concentrations in DMSO (3% final) to empty 384-well assay plates (Corning cat #3824). A mixture of enzyme, 1 μM biotinylated peptide substrate, and buffer in 10 μL volume was added. The assay was started upon the addition of ATP (at Km). The 10 μL reaction was incubated at room temperature. The reaction was stopped upon the addition of detection buffer containing streptavidin-XL665 (5 μL) and TK antibody-Eu3+(5 μL). After a 60 min incubation at room temperature, the fluorescence at 665 nm and 620 nm was read on an Envision microplate reader (Perkin Elmer).
(§3) Kinase activity normalized to DMSO (100% activity) and reference compound at 1 μM and (0% activity) was calculated using the fluorescence ratio […]. IC50 values were calculated by nonlinear regression analysis using a 4-parameter logistic curve fit in ActivityBase XE (IDBS).
(§4) Example C-1: Human Mer (residues R557-E882 with H628Q and R794A, 0.7 nM) was incubated with 8 mM MOPS pH 7.0, 0.2 mM EDTA, 30 mM NaCl, 250 μM GGMEDIYFEFMGGKKK (SEQ ID NO: 2), 10 mM magnesium acetate, and 10 μM [γ-^33P-ATP]. The reaction was initiated by the addition of the Mg/ATP mix. After incubation for 40 minutes at room temperature, the reaction was stopped by the addition of phosphoric acid to a concentration of 0.5%. A reaction aliquot of 10 μL was then spotted onto a P30 filtermat and washed four times for 4 minutes in 0.425% phosphoric acid and once in methanol prior to drying and scintillation counting. Incorporated ^33P was measured using the Wallac Microbeta scintillation counter (Perkin Elmer).
Example C-2: Human MER (residues 528-999; CarnaBio, 1 ng/well) was also incubated with enzymatic buffer (Cisbio) supplemented with 5 mM MgCl2 and 1 mM DTT. The mixture was added to the pre-plated compounds. The reaction was initiated upon addition of ATP at Km (40 μM). The reaction was incubated at room temperature for 60 min and stopped upon the addition of SA-XL665 and TK-antibody both diluted in EDTA-containing kinase detection buffer (Cisbio). The kinase activity was calculated as stated above and the IC50 values were reported.
A general note: In TR-FRET formats the signal depends on donor and acceptor labels being close together.

The target in another assay is T2, Human Met (Homo sapiens, UniProt P08581).
T2 construct: Human MET (residues 956-1390)
Briefly: Human Met kinase assay (33P radiometric / HTRF KinEase). The following applies: protocols of Examples D-1 and/or D-2; read-out: c-Met IC50. The procedure:
as §1, §2, §3
Example D-1: Human Met (residues R974-S1390 with A1209G and V1290L, 3.4 nM) was incubated with 8 mM MOPS pH 7.0, 0.2 mM EDTA, 250 μM KKKGQEEEYVFIE (SEQ ID NO:3), 1 mM sodium orthovanadate, 5 mM […], 10 mM magnesium acetate, and 10 μM [γ-^33P-ATP]. The reaction was initiated by the addition of the Mg/ATP mix. After incubation for 40 minutes at room temperature, the reaction was stopped by the addition of phosphoric acid to a concentration of 0.5%. A reaction aliquot of 10 μL was then spotted onto a P30 filtermat and washed four times for 4 minutes in 0.425% phosphoric acid and once in methanol prior to drying and scintillation counting. Incorporated ^33P was measured using the Wallac Microbeta scintillation counter (Perkin Elmer).
Example D-2: Human MET (residues 956-1390; CarnaBio, 0.1 ng/well) was also incubated with enzymatic buffer (Cisbio) supplemented with 5 mM MgCl2, 1 mM DTT and 1 mM MnCl2. The mixture was added to the pre-plated compounds. The reaction was initiated upon addition of ATP at Km (3.0 μM). The reaction was incubated at room temperature for 40 min and stopped upon the addition of SA-XL665 and TK-antibody both diluted in EDTA-containing kinase detection buffer (Cisbio). The kinase activity was calculated as stated above and the IC50 values were reported.

In another assay the target is T3, Human KDR (Homo sapiens, UniProt P35968).
T3 construct: Human KDR (residues K790-V1356, 55 nM); purchased Eurofins Pharma Discovery Services UK Limited (KinaseProfiler, B-1) and/or CarnaBio (B-2)
Briefly: Human KDR kinase assay (33P radiometric / HTRF KinEase). The following applies: protocols of Examples B-1 and/or B-2. The procedure: as §1, §2, §3
as §4, with “B-1:” for “C-1:”, “KDR” for “Mer”, “K790-V1356, 55” for “R557-E882 with H628Q and R794A, 0.7”, “0.33 mg/mL myelin basic protein,” for “30 mM NaCl, 250 μM GGMEDIYFEFMGGKKK (SEQ ID NO: 2),”
Example B-2: Human KDR (residues 790-1356; CarnaBio, 0.1 ng/well) was also incubated with enzymatic buffer (Cisbio) supplemented with 5 mM MgCl2, 1 mM MnCl2, and 1 mM DTT. The mixture was added to the pre-plated compounds. The reaction was initiated upon addition of ATP at Km (4.0 μM). The reaction was incubated at room temperature for 40 min and stopped upon the addition of SA-XL665 and TK-antibody both diluted in EDTA-containing kinase detection buffer (Cisbio). The kinase activity was calculated as stated above and the IC50 values were reported.

Usually IC50 stands for the midpoint of a concentration-inhibition curve.

T2 sequence (P08581 974-1390 limits assumed): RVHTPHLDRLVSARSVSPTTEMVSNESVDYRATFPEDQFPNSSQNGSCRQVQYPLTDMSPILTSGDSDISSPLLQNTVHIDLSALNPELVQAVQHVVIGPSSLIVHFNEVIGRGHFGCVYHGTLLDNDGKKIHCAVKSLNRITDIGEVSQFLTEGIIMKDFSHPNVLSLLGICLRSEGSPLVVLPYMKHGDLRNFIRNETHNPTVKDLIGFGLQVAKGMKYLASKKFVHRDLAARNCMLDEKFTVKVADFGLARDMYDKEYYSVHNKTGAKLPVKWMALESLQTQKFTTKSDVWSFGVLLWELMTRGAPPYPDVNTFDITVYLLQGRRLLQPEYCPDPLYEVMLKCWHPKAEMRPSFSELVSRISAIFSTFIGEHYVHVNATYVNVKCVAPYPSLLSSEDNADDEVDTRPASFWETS
T3 sequence (P35968 790-1356): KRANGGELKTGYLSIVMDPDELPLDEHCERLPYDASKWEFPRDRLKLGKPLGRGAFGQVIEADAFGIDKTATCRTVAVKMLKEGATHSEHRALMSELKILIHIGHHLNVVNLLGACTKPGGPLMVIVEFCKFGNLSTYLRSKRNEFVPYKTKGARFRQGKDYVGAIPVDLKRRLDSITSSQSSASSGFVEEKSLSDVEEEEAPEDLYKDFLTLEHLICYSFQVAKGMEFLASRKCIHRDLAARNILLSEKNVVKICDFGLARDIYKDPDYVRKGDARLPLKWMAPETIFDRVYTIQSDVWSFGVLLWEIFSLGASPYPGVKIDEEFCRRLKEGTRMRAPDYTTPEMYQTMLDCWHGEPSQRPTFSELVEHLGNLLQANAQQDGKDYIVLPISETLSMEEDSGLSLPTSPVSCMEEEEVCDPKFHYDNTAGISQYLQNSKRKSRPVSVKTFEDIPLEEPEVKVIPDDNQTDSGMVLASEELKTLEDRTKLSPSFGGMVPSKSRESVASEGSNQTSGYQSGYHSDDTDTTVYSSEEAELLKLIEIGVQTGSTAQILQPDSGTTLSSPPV

For `COCCOc1cnc2c(Oc3ccc(NC(=O)c4c(C)n(C)c(C)c(C5=CCOCC5)c4=O)cc3F)ccnc2c1` [Compound 67, 5-(3,6-Dihydro-2H-pyran-4-yl)-N-[3-fluoro-4-[[7-(2-methoxyethoxy)-1,5-naphthyridin-4-yl]oxy]phenyl]-1,2,6-trimethyl-4-oxopyridine-3-carboxamide], the concentration for half-maximal inhibition (IC50) against Human Mer, at Human Met and on Human KDR was over 300 nM throughout.
For the compound `COc1cc2nccc(Oc3ccc(NC(=O)c4c(C)nc(C)c(OC)c4O)cc3)c2nc1OC` [Compound 61, N-[4-[(6,7-Dimethoxy-1,5-naphthyridin-4-yl)oxy]phenyl]-4-hydroxy-5-methoxy-2,6-dimethylpyridine-3-carboxamide], the figures for the half-inhibitory concentration (IC50) on Human Mer, at Human Met and on Human KDR were over 300 nM, over 300 nM and at most 100 nM, respectively.
On to `COc1cc2nccc(Oc3ccc(NC(=O)c4c5n(cc(C6=CCOCC6)c4=O)CCOC5)cc3F)c2nc1OC` [Compound G1-7, 7-(3,6-Dihydro-2H-pyran-4-yl)-N-[4-[(6,7-dimethoxy-1,5-naphthyridin-4-yl)oxy]-3-fluorophenyl]-8-oxo-3,4-dihydro-1H-pyrido[2,1-c][1,4]oxazine-9-carboxamide], for which the 50% inhibitory concentration (IC50) against Human Mer is at most 100 nM; on Human Met it was at most 100 nM; at Human KDR it was over 300 nM.
For `C=C(C)c1c(C)nc(C)c(C(=O)Nc2ccc(Oc3ccnc4cc(OC)c(OC)nc34)c(F)c2)c1O` [Compound 5, N-[4-[(6,7-Dimethoxy-1,5-naphthyridin-4-yl)oxy]-3-fluorophenyl]-4-hydroxy-2,6-dimethyl-5-prop-1-en-2-ylpyridine-3-carboxamide], the IC50 on Human Mer, on Human Met and at Human KDR was at most 100 nM each time.
Consider `COCCOc1cc2nccc(Oc3ccc(NC(=O)c4c(C)nc(C)c(OC)c4O)cc3)c2nc1OC` [Compound 71, 4-Hydroxy-5-methoxy-N-[4-[[6-methoxy-7-(2-methoxyethoxy)-1,5-naphthyridin-4-yl]oxy]phenyl]-2,6-dimethylpyridine-3-carboxamide], for which the values for the IC50 against Human Mer, on Human Met and at Human KDR were over 300 nM, over 300 nM and at most 100 nM, respectively.
Regarding `C=C(C)c1c(C)nc(C)c(C(=O)Nc2ccc(Oc3ccnc4cc(OC)cnc34)c(F)c2)c1O` [Compound 3, N-[3-Fluoro-4-[(7-methoxy-1,5-naphthyridin-4-yl)oxy]phenyl]-4-hydroxy-2,6-dimethyl-5-prop-1-en-2-ylpyridine-3-carboxamide], the IC50 at Human Mer, at Human Met and against Human KDR was at most 100 nM throughout.
On to `COc1cc2nccc(Oc3ccc(NC(=O)c4c(C)n(C)c(C)c(C#N)c4=O)cc3F)c2nc1OC` [Compound 78, 5-Cyano-N-[4-[(6,7-dimethoxy-1,5-naphthyridin-4-yl)oxy]-3-fluorophenyl]-1,2,6-trimethyl-4-oxopyridine-3-carboxamide], for which the concentration for half-maximal inhibition (IC50) against Human Mer, on Human Met and on Human KDR was over 300 nM in each case.
On to `COc1cc2nccc(Oc3ccc(NC(=O)c4c5n(cc(C6=CCCC6)c4=O)CCOC5)cc3)c2nc1OC` [Compound G1-6, 7-(Cyclopenten-1-yl)-N-[4-[(6,7-dimethoxy-1,5-naphthyridin-4-yl)oxy]phenyl]-8-oxo-3,4-dihydro-1H-pyrido[2,1-c][1,4]oxazine-9-carboxamide], for which the IC50 is at most 100 nM at Human Mer, at most 100 nM at Human Met and over 300 nM on Human KDR.
Take `COCCOc1cc2nccc(Oc3ccc(NC(=O)c4c(C)nc(C)c(OC)c4O)cc3F)c2nc1OC` [Compound 70, N-[3-Fluoro-4-[[6-methoxy-7-(2-methoxyethoxy)-1,5-naphthyridin-4-yl]oxy]phenyl]-4-hydroxy-5-methoxy-2,6-dimethylpyridine-3-carboxamide]: the values for the 50% inhibitory concentration (IC50) against Human Mer, at Human Met and against Human KDR were over 300 nM, over 300 nM and at most 100 nM, respectively.
For the compound `COc1cc2nccc(Oc3ccc(NC(=O)c4c5n(cc(C6=CCCC6)c4=O)CCOC5)cc3F)c2nc1OC` [Compound G1-1, 7-(Cyclopenten-1-yl)-N-[4-[(6,7-dimethoxy-1,5-naphthyridin-4-yl)oxy]-3-fluorophenyl]-8-oxo-3,4-dihydro-1H-pyrido[2,1-c][1,4]oxazine-9-carboxamide], the half-maximal inhibitory concentration (IC50) on Human Mer was at most 100 nM; at Human Met, at most 100 nM; at Human KDR, 100 to 300 nM.
Consider `COc1cc2nccc(Oc3ccc(NC(=O)c4c(C)n(C)c(C)c(OC)c4=O)cc3F)c2nc1OC` [Compound 77, N-[4-[(6,7-Dimethoxy-1,5-naphthyridin-4-yl)oxy]-3-fluorophenyl]-5-methoxy-1,2,6-trimethyl-4-oxopyridine-3-carboxamide], for which the concentration for half-maximal inhibition (IC50) at Human Mer, on Human Met and against Human KDR was over 300 nM in each case.
With `COc1cnc2c(Oc3ccc(NC(=O)c4c(C)n(C)c(C)c(OC)c4=O)cc3F)ccnc2c1` [Compound 75, N-[3-Fluoro-4-[(7-methoxy-1,5-naphthyridin-4-yl)oxy]phenyl]-5-methoxy-1,2,6-trimethyl-4-oxopyridine-3-carboxamide], the IC50 on Human Mer, on Human Met and on Human KDR was over 300 nM each time.
